# Source: EP3046573B1, “AMYLIN ANALOGUES” (Zealand Pharma A/S, priority 2013, dated 2015)
# pEC50: −log10 of the molar value. Like-named read-outs stand apart in the source and are kept apart here. Numbered stars: 1 amine (or outer) side, 2 acyl side, 3 side chain; on linkers, the order of the positions; unused ones are H or OH. Bridge positions count the residues as written; N and C are the ends. Square brackets hold non-standard residues; d marks the D form. Peptide text beside a SMILES is read from it. * marks the point of attachment. C20 diacid = O=C(O)CCCCCCCCCCCCCCCCCCC(=O)*; γGlu = O=C(O)[C@H](CCC(=O)[*:2])N[*:1]; NMeI = CC[C@H](C)[C@H](NC)C(=O)O; Sar = CNCC(=O)O
# What was measured:
# [1] = Assessment of physical stability: fibril formation detected with Thioflavin T (ThT), lag-time; type: physicochemical; details: 1 mg/ml peptide, 40 µM ThT, FND = Fibrillation not detected; for Fibrillation lag time (hours) pH 4.0 (Ac): 50 mM acetate buffer pH 4.0, 96 hours at 40°C; for Fibrillation lag time (hours) pH 7.0 (His): 50 mM histidine buffer pH 7.0, 96 hours at 40°C; for Fibrillation lag time (hours) pH 7.0 (Ph): 50 mM phosphate buffer pH 7.0, 96 hours at 40°C
# In short: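 Test peptide at 1 mg/ml with 40 µM ThT in 50 mM phosphate (pH 7.0), 50 mM histidine (pH 7.0) or 50 mM acetate (pH 4.0), in triplicate, 40° C. for 96 h. Fluorescence read every 10 min after 300 s agitation. Lag-time (h) taken as intersection of linear fits to initial stable and growth phases.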
# [2] = molecular target: T1, human amylin receptor 3 (hAMYR3) consisting of hCTR2 co-expressed with human Receptor Activity Modifying Protein 3 (hRAMP3) (Homo sapiens, UniProt O60896+P30988); assay: hAMYR3 assay: induction of cAMP (AlphaScreen cAMP Assay kit) in COS7 cells expressing hAMYR3; type: cell-based
# T1 construct: expressed in transfected cells
# T1 sequence (P30988 25-474): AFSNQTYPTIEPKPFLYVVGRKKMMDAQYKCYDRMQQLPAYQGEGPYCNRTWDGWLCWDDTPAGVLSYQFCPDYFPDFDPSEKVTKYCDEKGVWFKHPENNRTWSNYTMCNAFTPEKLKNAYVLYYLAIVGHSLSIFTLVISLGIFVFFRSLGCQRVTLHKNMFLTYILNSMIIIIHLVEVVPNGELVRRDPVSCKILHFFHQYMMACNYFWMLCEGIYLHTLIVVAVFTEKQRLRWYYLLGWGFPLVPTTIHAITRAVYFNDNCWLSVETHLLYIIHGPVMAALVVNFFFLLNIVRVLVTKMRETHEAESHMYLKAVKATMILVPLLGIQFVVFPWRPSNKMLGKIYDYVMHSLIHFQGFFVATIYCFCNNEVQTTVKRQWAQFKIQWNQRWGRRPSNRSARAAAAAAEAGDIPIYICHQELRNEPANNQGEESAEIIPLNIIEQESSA
# T1 sequence (O60896 24-148 partner): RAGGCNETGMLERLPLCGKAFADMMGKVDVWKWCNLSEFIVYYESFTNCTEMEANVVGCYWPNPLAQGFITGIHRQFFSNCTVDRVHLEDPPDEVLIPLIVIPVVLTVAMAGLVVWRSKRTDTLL
# In short: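 Stable COS7 clone co-expressing hCTR2 and hRAMP3, stimulated 15 min at 37° C with increasing peptide in Tyrode buffer pH 7.4 with 100 µM IBMX and 0.1% casein. cAMP measured by AlphaScreen after lysis; EC50 and % efficacy versus pramlintide from 4PL fit.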
# [3] = molecular target: T2, human calcitonin receptor (hCTR2) (Homo sapiens, UniProt P30988); assay: hCTR2 assay: induction of cAMP (AlphaScreen cAMP Assay kit) in COS7 cells expressing hCTR2; type: cell-based
# T2 construct: expressed in transfected cells
# T2 sequence (P30988 25-474): T1 sequence (P30988 25-474)
# In short: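 Functional agonism is measured as cAMP accumulation in a COS7 line stably transfected with hCTR2, lacking endogenous RAMPs. Peptides act for 15 min at 37° C with IBMX present, and curves are fitted with a 4-parameter logistic model.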
# [4] = cAMP induction in COS7 cells expressing hAMYR3, average of a minimum of 3 determinations, read-out: hAMY R3 EC50
# [5] = cAMP induction in COS7 cells expressing hCTR2, average of a minimum of 3 determinations, read-out: hCTR2 EC50
smiles,measurement,setting,value
"CC[C@H](C)[C@@H](C(=O)N[C@@H](CC(C)C)C(=O)N[C@H](CO)C(=O)N[C@@H](CO)C(=O)N[C@H](C(=O)N[C@@H](CC(N)=O)C(=O)N[C@H](C(=O)NCC(=O)N[C@@H](CO)C(=O)N[C@@H](CC(N)=O)C(=O)N[C@H](C(=O)N1CCC[C@H]1C(N)=O)[C@@H](C)O)C(C)C)[C@@H](C)O)N(C)C(=O)[C@H](C)NC(=O)CN(C)C(=O)[C@@H](Cc1ccccc1)NC(=O)[C@H](CC(N)=O)NC(=O)[C@H](CC(N)=O)NC(=O)[C@H](CO)NC(=O)[C@H](CO)NC(=O)[C@H](CCCNC(=N)N)NC(=O)[C@H](Cc1c[nH]cn1)NC(=O)[C@H](CC(C)C)NC(=O)[C@H](Cc1ccccc1)NC(=O)[C@H](CCC(=O)O)NC(=O)[C@H](C)NC(=O)[C@H](CC(C)C)NC(=O)[C@H](CCCNC(=N)N)NC(=O)[C@H](CCC(N)=O)NC(=O)[C@@H](NC(=O)[C@H](C)NC(=O)[C@@H]1CSSC[C@H](NC(=O)[C@H](CCCCN)NC(=O)CC[C@H](NC(=O)CCCCCCCCCCCCCCCCCCC(=O)O)C(=O)O)C(=O)N[C@@H](CC(N)=O)C(=O)N[C@@H]([C@@H](C)O)C(=O)N[C@@H](C)C(=O)N[C@@H]([C@@H](C)O)C(=O)N1)[C@@H](C)O [Compound 72, [19CD]-isoGlu-KC()NTATC()ATQRLAEFLHRSSNN-DPhe-Gly(Me)-A-Ile(Me)-L-DSer-STNVGSNTP] ({C20 diacid-γGlu}-KCNTATCATQRLAEFLHRSSNN[dF][Sar]A[NMeI]L[dS]STNVGSNTP-NH2; disulfide 2-7)",Fibrillation lag time (hours) pH 4.0 (Ac),[1],FND
same,Fibrillation lag time (hours) pH 7.0 (His),[1],FND
same,Fibrillation lag time (hours) pH 7.0 (Ph),[1],FND
same,pEC50,[2],10.01
same,pEC50,[3],10.15
"CC[C@H](C)[C@@H](C(=O)N[C@@H](CC(C)C)C(=O)N[C@@H](CO)C(=O)N[C@@H](CO)C(=O)N[C@H](C(=O)N[C@@H](CC(=O)O)C(=O)N[C@H](C(=O)NCC(=O)N[C@@H](CO)C(=O)N[C@@H](CC(=O)O)C(=O)N[C@H](C(=O)N1CCC[C@H]1C(N)=O)[C@@H](C)O)C(C)C)[C@@H](C)O)N(C)C(=O)[C@H](C)NC(=O)CN(C)C(=O)[C@H](Cc1ccccc1)NC(=O)[C@H](CO)NC(=O)[C@H](CO)NC(=O)[C@H](CO)NC(=O)[C@H](CO)NC(=O)[C@H](CCCNC(=N)N)NC(=O)[C@H](Cc1c[nH]cn1)NC(=O)[C@H](CC(C)C)NC(=O)[C@H](Cc1ccccc1)NC(=O)[C@H](CCC(=O)O)NC(=O)[C@H](C)NC(=O)[C@H](CC(C)C)NC(=O)[C@H](CCCNC(=N)N)NC(=O)[C@H](CCC(N)=O)NC(=O)[C@@H](NC(=O)[C@H](C)NC(=O)[C@@H]1CSSC[C@H](NC(=O)[C@H](CCCNC(=N)N)NC(=O)CC[C@H](NC(=O)CCCCCCCCCCCCCCCCCCC(=O)O)C(=O)O)C(=O)N[C@@H](CC(N)=O)C(=O)N[C@@H]([C@@H](C)O)C(=O)N[C@@H](C)C(=O)N[C@@H]([C@@H](C)O)C(=O)N1)[C@@H](C)O [Compound 73, [19CD]-isoGlu-RC()NTATC()ATQRLAEFLHRSSSSF-Gly(Me)-A-Ile(Me)-LSSTDVGSDTP-NH2] ({C20 diacid-γGlu}-RCNTATCATQRLAEFLHRSSSSF[Sar]A[NMeI]LSSTDVGSDTP-NH2; disulfide 2-7)",Fibrillation lag time (hours) pH 4.0 (Ac),[1],FND
same,Fibrillation lag time (hours) pH 7.0 (His),[1],FND
same,Fibrillation lag time (hours) pH 7.0 (Ph),[1],FND
same,pEC50,[2]; [4],9.85
same,pEC50,[3]; [5],10.14
"CC[C@H](C)[C@@H](C(=O)N[C@@H](CC(C)C)C(=O)N[C@@H](CO)C(=O)N[C@@H](CO)C(=O)N[C@H](C(=O)N[C@@H](CC(N)=O)C(=O)N[C@H](C(=O)NCC(=O)N[C@@H](CO)C(=O)N[C@@H](CC(N)=O)C(=O)N[C@H](C(=O)N1CCC[C@H]1C(N)=O)[C@@H](C)O)C(C)C)[C@@H](C)O)N(C)C(=O)[C@H](C)NC(=O)CN(C)C(=O)[C@H](Cc1ccccc1)NC(=O)[C@H](CC(N)=O)NC(=O)[C@H](CC(N)=O)NC(=O)[C@H](CO)NC(=O)[C@H](CO)NC(=O)[C@H](CCCNC(=N)N)NC(=O)[C@H](Cc1c[nH]cn1)NC(=O)[C@H](CC(C)C)NC(=O)[C@H](Cc1ccccc1)NC(=O)[C@H](CCC(=O)O)NC(=O)[C@H](C)NC(=O)[C@H](CC(C)C)NC(=O)[C@H](CCCNC(=N)N)NC(=O)[C@H](CCC(N)=O)NC(=O)[C@@H](NC(=O)[C@H](C)NC(=O)[C@@H]1CSSC[C@H](NC(=O)[C@H](CCCNC(=N)N)NC(=O)CC[C@H](NC(=O)CCCCCCCCCCCCCCCCCCC(=O)O)C(=O)O)C(=O)N[C@@H](CC(N)=O)C(=O)N[C@@H]([C@@H](C)O)C(=O)N[C@@H](C)C(=O)N[C@@H]([C@@H](C)O)C(=O)N1)[C@@H](C)O [Compound 18, [19CD]-isoGlu-RC()NTATC()ATQRLAEFLHRSSNNF-Gly(Me)-A-Ile(Me)-LSSTNVGSNTP-NH2] ({C20 diacid-γGlu}-RCNTATCATQRLAEFLHRSSNNF[Sar]A[NMeI]LSSTNVGSNTP-NH2; disulfide 2-7)",Fibrillation lag time (hours) pH 4.0 (Ac),[1],20 hours
same,Fibrillation lag time (hours) pH 7.0 (His),[1],33 hours
same,Fibrillation lag time (hours) pH 7.0 (Ph),[1],33 hours
same,pEC50,[2],9.77
same,pEC50,[3],10.22
"CC[C@H](C)[C@@H](C(=O)N[C@@H](CC(C)C)C(=O)N[C@@H](CO)C(=O)N[C@@H](CO)C(=O)N[C@H](C(=O)N[C@@H](CCC(=O)O)C(=O)N[C@H](C(=O)NCC(=O)N[C@@H](CO)C(=O)N[C@@H](CCC(=O)O)C(=O)N[C@H](C(=O)N1CCC[C@H]1C(N)=O)[C@@H](C)O)C(C)C)[C@@H](C)O)N(C)C(=O)[C@H](C)NC(=O)CN(C)C(=O)[C@H](Cc1ccccc1)NC(=O)[C@H](CO)NC(=O)[C@H](CO)NC(=O)[C@H](CO)NC(=O)[C@H](CO)NC(=O)[C@H](CCCNC(=N)N)NC(=O)[C@H](Cc1c[nH]cn1)NC(=O)[C@H](CC(C)C)NC(=O)[C@H](Cc1ccccc1)NC(=O)[C@H](CCC(=O)O)NC(=O)[C@H](C)NC(=O)[C@H](CC(C)C)NC(=O)[C@H](CCCNC(=N)N)NC(=O)[C@H](CCC(N)=O)NC(=O)[C@@H](NC(=O)[C@H](C)NC(=O)[C@@H]1CSSC[C@H](NC(=O)[C@H](CCCNC(=N)N)NC(=O)CC[C@H](NC(=O)CCCCCCCCCCCCCCCCCCC(=O)O)C(=O)O)C(=O)N[C@@H](CC(N)=O)C(=O)N[C@@H]([C@@H](C)O)C(=O)N[C@@H](C)C(=O)N[C@@H]([C@@H](C)O)C(=O)N1)[C@@H](C)O [Compound 76, [19CD]-isoGlu-RC()NTATC()ATQRLAEFLHRSSSSF-Gly(Me)-A-Ile(Me)-LSSTEVGSETP-NH2] ({C20 diacid-γGlu}-RCNTATCATQRLAEFLHRSSSSF[Sar]A[NMeI]LSSTEVGSETP-NH2; disulfide 2-7)",Fibrillation lag time (hours) pH 4.0 (Ac),[1],FND
same,Fibrillation lag time (hours) pH 7.0 (His),[1],FND
same,Fibrillation lag time (hours) pH 7.0 (Ph),[1],FND
same,pEC50,[2]; [4],9.62
same,pEC50,[3]; [5],9.72
"CC[C@H](C)[C@@H](C(=O)N[C@@H](CC(C)C)C(=O)N[C@@H](CO)C(=O)N[C@@H](CO)C(=O)N[C@H](C(=O)N[C@@H](CC(N)=O)C(=O)N[C@H](C(=O)NCC(=O)N[C@@H](CO)C(=O)N[C@@H](CC(N)=O)C(=O)N[C@H](C(=O)N1CCC[C@H]1C(N)=O)[C@@H](C)O)C(C)C)[C@@H](C)O)N(C)C(=O)[C@H](C)NC(=O)CN(C)C(=O)[C@H](Cc1ccccc1)NC(=O)[C@H](CC(N)=O)NC(=O)[C@H](CC(N)=O)NC(=O)[C@H](CO)NC(=O)[C@H](CO)NC(=O)[C@H](CCCNC(=N)N)NC(=O)[C@H](Cc1c[nH]cn1)NC(=O)[C@H](CC(C)C)NC(=O)[C@H](Cc1ccccc1)NC(=O)[C@H](CCC(=O)O)NC(=O)[C@H](C)NC(=O)[C@H](CC(C)C)NC(=O)[C@H](CCCNC(=N)N)NC(=O)[C@H](CCC(N)=O)NC(=O)[C@@H](NC(=O)[C@H](C)NC(=O)[C@@H]1CSSC[C@H](NC(=O)[C@H](Cc2c[nH]c3ccccc23)NC(=O)[C@H](CCCNC(=N)N)NC(=O)CC[C@H](NC(=O)CCCCCCCCCCCCCCCCCCC(=O)O)C(=O)O)C(=O)N[C@@H](CC(N)=O)C(=O)N[C@@H]([C@@H](C)O)C(=O)N[C@@H](C)C(=O)N[C@@H]([C@@H](C)O)C(=O)N1)[C@@H](C)O [Compound 174, [19CD]-isoGlu-RWC()NTATC()ATQRLAEFLHRSSNNF-Gly(Me)-A-Ile(Me)-LSSTNVGSNTP-NH2] ({C20 diacid-γGlu}-RWCNTATCATQRLAEFLHRSSNNF[Sar]A[NMeI]LSSTNVGSNTP-NH2; disulfide 3-8)",Fibrillation lag time (hours) pH 4.0 (Ac),[1],FND
same,Fibrillation lag time (hours) pH 7.0 (His),[1],FND
same,Fibrillation lag time (hours) pH 7.0 (Ph),[1],FND
same,pEC50,[2],9.74
same,pEC50,[3],9.74
